Patent publication US8344000B2, “Compounds which have activity at M1 receptor and their uses in medicine” (Glaxo Group Limited, priority 2007, dated 2013)

Biological target: T1, human muscarinic M1 receptors (Homo sapiens, UniProt P11229)
T1 construct: expressed in transfected cells
T1 sequence (P11229 1-460): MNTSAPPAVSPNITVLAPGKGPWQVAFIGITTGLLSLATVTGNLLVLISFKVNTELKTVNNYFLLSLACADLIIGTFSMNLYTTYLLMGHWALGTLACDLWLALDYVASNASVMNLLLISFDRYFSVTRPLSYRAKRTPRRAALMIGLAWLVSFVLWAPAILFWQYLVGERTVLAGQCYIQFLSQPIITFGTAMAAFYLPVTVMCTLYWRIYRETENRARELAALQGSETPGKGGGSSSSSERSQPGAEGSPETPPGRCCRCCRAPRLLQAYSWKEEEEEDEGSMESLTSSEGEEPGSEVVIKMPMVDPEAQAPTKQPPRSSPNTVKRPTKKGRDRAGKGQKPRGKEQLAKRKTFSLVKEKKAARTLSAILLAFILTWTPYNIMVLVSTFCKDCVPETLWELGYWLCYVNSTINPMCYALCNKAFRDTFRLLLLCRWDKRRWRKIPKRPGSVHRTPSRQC
Test: FLIPR experiments on M1 receptors (calcium response, CHO-M1 cells)
Type: cell-based
Settings: tested for activity; assay and threshold not specified at the place
Method: FLIPR Experiments on M1 Receptors to Determine Agonist/Antagonist Potency
Compounds of the invention were characterized in a functional assay to determine their ability to activate the intracellular calcium pathway in CHO cells with stable expression of human muscarinic M1 receptors using FLIPR (Fluorometric Imaging Plate Reader) technology. Briefly, CHO-M1 cells were plated (15,000/well) and allowed to grow overnight at 37 degrees. Media were removed and 30 μL loading buffer (HBSS with 2.5 mM probenicid, 2 μM Fluo-4, 500 μM Brilliant Black, pH 7.4) was added. After incubation at 37 degrees for 90 minutes, 10 μL of the assay buffer (HBSS with 2.5 mM probenecid, pH 7.4) containing test compounds was added to each well on the FLIPR instrument. Calcium response was monitored to determine agonism. […] Calcium response was then monitored again to determine compound's antagonism to acetylcholine. […] Results were imported into ActivityBase data analysis suite (ID Business Solution Inc., Parsippany, N.J.) where the curves were analysed by non-linear curve fitting and the resulting pEC50/fpKi were calculated. The maximum asymptotes of agonist compounds were calculated as percentage of maximum FLIPR response induced by carbamoylcholine chloride added as control on the same compound plates.

Compound: Cl.O=C1Cc2ccccc2N1C1CCN(C2CCOCC2)CC1 [1-[1-(Tetrahydro-2H-pyran-4-yl)-4-piperidinyl]-1,3-dihydro-2H-indol-2-one hydrochloride]
- activity: below the threshold value
